Results taken from US6946480B2, “Glutaminyl based DPIV inhibitors” (priority 2002, dated 2005).

Biological target: T1, plasma DPIV activity (Rattus norvegicus, UniProt P14740)
T1 construct: The assay mixture for determination of plasma DPIV activity consisted of 80 μl reagent and 20 μl plasma sample; from tissue; host or cells: plasma of male Wistar rats
Assay: Plasma DPIV inhibiting activity after intravasal and oral administration to Wistar rats
Assay type: in vivo
Conditions: 100 mg/kg b.w. vs. placebo, oral and intra-vasal administration
Description: Male Wistar rats (Shoe: Wist(Sho)) with a body weight ranging between 250 and 350 g were purchased from Tierzucht Schönwalde (Schönwalde, Germany).
Animals were single-caged under conventional conditions with controlled temperature (22±2° C.) on a 12/12 hours light/dark cycle (light on at 06:00 AM). Standard pelleted chow (ssniff® Soest, Germany) and tap water acidified with HCl were allowed ad libitum.
After ≧one week of adaptation at the housing conditions, catheters were implanted into the carotid artery of Wistar rats under general anaesthesia (i.p. injection of 0.25 ml/kg b.w. Rompun® [2%], BayerVital, Germany and 0.5 ml/kg b.w. Ketamin 10, Atarost GmbH & Co., Twistringen, Germany). The animals were allowed to recover for one week. The catheters were flushed with heparin-saline (100 IU/ml) three times per week. In case of catheter dysfunction, a second catheter was inserted into the contra-lateral carotid artery of the respective rat. After one week of recovery from surgery, this animal was reintegrated into the study. In case of dysfunction of the second catheter, the animal was withdrawn from the study. […]
Statistical evaluations and graphics were performed with PRISM® 3.02 (GraphPad Software, Inc.). All parameters were analysed in a descriptive manner including mean and SD.

T1 sequence (P14740 37-767 limits assumed): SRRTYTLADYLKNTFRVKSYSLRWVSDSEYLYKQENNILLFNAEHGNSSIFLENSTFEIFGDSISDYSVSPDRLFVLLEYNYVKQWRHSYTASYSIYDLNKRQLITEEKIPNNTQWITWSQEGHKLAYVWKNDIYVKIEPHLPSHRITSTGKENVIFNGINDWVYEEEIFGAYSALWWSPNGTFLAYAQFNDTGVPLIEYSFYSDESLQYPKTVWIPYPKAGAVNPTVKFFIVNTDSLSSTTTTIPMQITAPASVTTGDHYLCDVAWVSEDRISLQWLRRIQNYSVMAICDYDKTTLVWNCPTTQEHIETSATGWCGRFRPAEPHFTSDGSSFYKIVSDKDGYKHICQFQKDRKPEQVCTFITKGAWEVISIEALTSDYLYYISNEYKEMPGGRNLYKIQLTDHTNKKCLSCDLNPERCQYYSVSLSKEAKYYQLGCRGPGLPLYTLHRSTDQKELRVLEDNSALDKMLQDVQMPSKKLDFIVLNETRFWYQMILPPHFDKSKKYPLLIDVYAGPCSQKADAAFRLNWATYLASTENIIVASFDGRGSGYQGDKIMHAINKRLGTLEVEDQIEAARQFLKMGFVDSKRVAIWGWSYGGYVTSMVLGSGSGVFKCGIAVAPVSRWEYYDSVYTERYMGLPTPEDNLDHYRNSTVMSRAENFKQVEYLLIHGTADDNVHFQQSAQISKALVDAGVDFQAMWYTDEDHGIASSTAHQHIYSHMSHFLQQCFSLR

inhibition of plasma DPIV activity in vivo: inhibited plasma DPIV activity
Structure (SMILES): NC(=O)CC[C@H](N)C(=O)N1CCCC1 [glutaminyl pyrrolidine]
